Results taken from ChEMBL document CHEMBL3272142, “Analgesics and narcotic antagonists in the benzomorphan and 8-oxamorphinan series. 5” (1978).

Legend:
Assay type in all cases: functional
Mus musculus [1] = assay: Analgesic activity in sc dosed mouse assessed as phenylquinone-induced writhing measured for 10 mins
Mus musculus [2] = assay: Narcotic antagonist activity in sc dosed mouse assessed as reversal of oxymorphone-induced straub tail response administered 10 mins before oxymorphone challenge
Rattus norvegicus [3] = species: Rattus norvegicus; assay: Antagonist activity in rat assessed as morphine-induced analgesia by […] tail flick test
Rattus norvegicus [4] = assay: Analgesic activity in sc dosed rat assessed as phenylquinone-induced writhing measured for 10 mins
Mus musculus [5] = assay: Narcotic antagonist activity in sc dosed mouse assessed as reversal of oxymorphone-induced narcosis
[6] = Mus musculus, sc, 10 min, read-out: ED50
[7] = Mus musculus, sc, read-out: ED50

SMILES | ED50 (Mus musculus [1]; [6]) [mg/kg] | ED50 (Mus musculus [2]; [7]) [mg/kg] | ED50 (Rattus norvegicus [3]) [mg/kg] | ED50 (Rattus norvegicus [4]) [mg/kg] | ED50 (Mus musculus [5]) [mg/kg] | ED50 (Mus musculus [1]) [mg/kg] | ED50 (Mus musculus [2]) [mg/kg]
Oc1ccc2c(c1)[C@@]13CCCO[C@H]1[C@@H](C2)N(CC1CCC1)CC3 | 0.15 | 10 |  |  |  |  | 
Oc1ccc2c(c1)[C@@]13CCCO[C@@H]1[C@@H](C2)N(CC1CC1)CC3 | 8.4 | 20 |  |  |  |  | 
C[C@@]12OCCC[C@@]13CCN(CC1CCC1)[C@@H]2Cc1ccc(O)cc13 | 0.068 | 23 |  |  |  |  | 
CC1CC23CCN(C)C(Cc4ccc(O)cc42)C3O1 (stereo unspecified) | 1.8 | > 40 |  |  |  |  | 
CC1CC23CCN(CC4CC4)C(Cc4ccc(O)cc42)C3(C)O1 (stereo unspecified) | > 40 | 5 |  |  |  |  | 
C=CCC12CCN(CC3CC3)C(Cc3ccc(O)cc31)[C@@H]2O (stereo partly specified) | 0.23 | 1.9 |  |  |  |  | 
C=CCC12CCN(CC3CCC3)C(Cc3ccc(O)cc31)[C@]2(C)O (stereo partly specified) | 1.3 | 10 |  |  |  |  | 
Oc1ccc2c(c1)[C@@]13CCCC[C@@]1(O)[C@@H](C2)N(CC1CCC1)CC3 [BUTORPHANOL] | 0.051 | 0.98 | 0.43 | 0.04 | 0.27 |  | 
Oc1ccc2c(c1)[C@@]13CCCC[C@H]1[C@@H](C2)N(CC1CC1)CC3 [CYCLORPHAN] | 0.013 | 0.32 | 0.032 | 0.028 | 0.1 |  | 
CN1CC[C@]23CCCO[C@@H]2[C@H]1Cc1ccc(O)cc13 | 30 | > 40 |  |  |  |  | 
C[C@@]12OCCC[C@@]13CCN(CC1CC1)[C@@H]2Cc1ccc(O)cc13 (stereo in doubt; (-)-6d) |  |  | 0.021 | 0.2 | 0.014 | 0.105 | 0.2
Oc1ccc2c(c1)[C@@]13CCCO[C@H]1[C@@H](C2)N(CC1CC1)CC3 (stereo in doubt; (+)-6c) |  |  |  |  |  | >40 | >40
CN1CC[C@]23CCCO[C@H]2[C@H]1Cc1ccc(O)cc13 | 0.6 | > 40 |  |  |  |  | 
CN1CC[C@]23CCCO[C@@]2(C)[C@H]1Cc1ccc(O)cc13 | 0.03 | > 40 |  |  |  |  | 
C[C@]12OCCC[C@@]13CCN(CC1CC1)[C@@H]2Cc1ccc(O)cc13 | 35 | 6 |  |  |  |  | 
Oc1ccc2c(c1)[C@@]13CCCC[C@@]1(O)[C@@H](C2)N(CC1CC1)CC3 [OXILORPHAN] | 12.8 | 0.19 | 0.012 | 8 | 0.03 |  | 
C=CCC12CCN(CC3CC3)C(Cc3ccc(O)cc31)[C@]2(C)O (stereo partly specified) | > 40 | 0.8 |  |  |  |  | 
C=CCN1CC[C@]23CCCO[C@@]2(C)[C@H]1Cc1ccc(O)cc13 | 28 | 1 |  |  |  |  | 
CC(C)=CCN1CC[C@]23CCCO[C@@]2(C)[C@H]1Cc1ccc(O)cc13 | 0.18 | > 40 |  |  |  |  | 
C[C@@]12OCCC[C@@]13CCN(CC1CC1)[C@@H]2Cc1ccc(O)cc13 (stereo in doubt; (+)-6d) |  |  |  |  |  | >40 | >40
C[C@@]12OCCC[C@@]13CCN(CC1CC1)[C@@H]2Cc1ccc(O)cc13 (stereo in doubt; 6d) |  |  |  |  |  | 0.19 | 0.61
Oc1ccc2c(c1)[C@@]13CCCO[C@H]1[C@@H](C2)N(CC1CC1)CC3 (stereo in doubt; 6c) |  |  |  |  |  | 0.03 | 0.3
Oc1ccc2c(c1)[C@@]13CCCO[C@H]1[C@@H](C2)N(CC1CC1)CC3 (stereo in doubt; (-)-6c) |  |  | 0.097 | 0.09 | 0.04 | 0.013 | 0.26
C[C@]12OCCC[C@@]13CCN(CC1CCC1)[C@@H]2Cc1ccc(O)cc13 | 16 | 5 |  |  |  |  | 
CN1CC[C@]23CCCO[C@]2(C)[C@H]1Cc1ccc(O)cc13 | > 40 | > 40 |  |  |  |  | 
C=CCC12CCN(C)C(Cc3ccc(O)cc31)[C@@H]2O (stereo partly specified) | > 40 | > 40 |  |  |  |  | 
C=CCC12CCN(CC3CCC3)C(Cc3ccc(O)cc31)[C@@H]2O (stereo partly specified) | 11 | 4.5 |  |  |  |  | 
CC1CC23CCN(C)C(Cc4ccc(O)cc42)C3(C)O1 (stereo unspecified) | 0.4 | > 40 |  |  |  |  | 
